The text below walks through data of US10626094B2 (La Jolla Institute of Allergy & Immunology, priority 2014, dated 2020).

As a reminder, the IC50 is the concentration at which inhibition is half-maximal.

The target in the first test is LMPTP-A (Low Molecular Weight Protein Tyrosine Phosphatase-A) enzyme (Homo sapiens (Human), UniProt P24666). The experiment in a line: LMPTP primary screening / LMPTP (OMFP) enzyme inhibition assay, fluorescence intensity. In kind it is biochemical. The note with it: LMPTP-A, OMFP substrate, method of Example 2; read-out: IC50. Put shortly: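 0.625 nM LMPTP-A with 400 μM OMFP substrate in 50 mM Bis-Tris pH 6.0, 1 mM DTT, 0.01% Triton X-100, […]. Compounds at 20 μM final. Incubated 50 min at room temperature in the dark; fluorescence intensity read.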
Chain of LMPTP-A (Low Molecular Weight Protein Tyrosine Phosphatase-A) enzyme (P24666 whole entry): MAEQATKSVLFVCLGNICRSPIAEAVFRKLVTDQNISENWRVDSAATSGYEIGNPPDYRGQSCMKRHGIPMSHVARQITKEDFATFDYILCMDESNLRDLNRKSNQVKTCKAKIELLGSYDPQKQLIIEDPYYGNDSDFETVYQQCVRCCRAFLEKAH
For the compound `Fc1cc(Cl)ccc1-c1cc(NCCCc2cccnc2)c2ccccc2n1` [Compound I204, [2-(4-chloro-2-fluorophenyl)(4-quinolyl)](3-(3-pyridyl)propyl)amine], the IC50 lay in the range of 0.801 to 5 µM.

With `c1ccc2c(NCCCN3CCCCC3)cc(-c3ccc(-c4nn[nH]n4)cc3)nc2c1` [Compound I205], the IC50 is 0.801 to 5 µM. Consider `CCN1CCN(Cc2ccc(Nc3cc(-c4ccc(OC)cc4)nc4c3CCCC4)cc2)CC1` [Compound I206, {4-[(4-ethylpiperazinyl)methyl]phenyl}[2-(4-methoxyphenyl)(4-5,6,7,8-tetrahydroquinolyl)]amine], for which the half-maximal inhibitory concentration (IC50) lay within 0.801 to 5 µM. With `COc1ccc(-c2cc(NCCCN3CCCCC3)c3c(n2)CCCC3)cc1` [Compound I208], the IC50 lay in the range of 0.801 to 5 µM. Still for that read-out and setting: for `COc1ccc(-c2cc(Nc3cccc(CN4CCCC4)c3)c3c(n2)CCCC3)cc1` [Compound I209, [2-(4-methoxyphenyl)(4-5,6,7,8-tetrahydroquinolyl)][3-(pyrrolidinylmethyl)phenyl]amine] the value was 0.801 to 5 µM; for `COc1ccc(-c2cc(NCc3ccc(CN4CCCCC4)cc3)c3ccccc3n2)cc1` [Compound I210, [2-(4-methoxyphenyl)(4-quinolyl)]{[4-(piperidylmethyl)phenyl]methyl}amine], 0.801 to 5 µM. On the same count and under the same terms, then `COc1ccc(-c2cc(NCc3ccc(CN4CCOCC4)cc3)c3ccccc3n2)cc1` [Compound I211, [2-(4-methoxyphenyl)(4-quinolyl)]{[4-(morpholin-4-ylmethyl)phenyl]methyl}amine], with 0.801 to 5 µM; and `NC(=O)c1ccc(-c2cc(NCc3ccc(CN4CCOCC4)cc3)c3ccccc3n2)cc1` [Compound I212, 4-[4-({[4-(morpholin-4-ylmethyl)phenyl]methyl}amino)-2-quinolyl]benzamide], with over 5 µM; and `NC(=O)c1ccc(-c2cc(NCc3ccc(CN4CCCCC4)cc3)c3ccccc3n2)cc1` [Compound I213, 4-[4-({[4-(piperidylmethyl)phenyl]methyl}amino)-2-quinolyl]benzamide], with over 5 µM. Regarding `CCN1CCN(Cc2ccc(CNc3cc(-c4ccc(C(N)=O)cc4)nc4ccccc34)cc2)CC1` [Compound I214, 4-{4-[({4-[(4-ethylpiperazinyl)methyl]phenyl}methyl)amino]-2-quinolyl}benzamide], the IC50 is over 5 µM. On the same count and under the same terms, then `CCN1CCN(Cc2ccc(Nc3cc(-c4ccc(C(N)=O)cc4)nc4ccccc34)cc2)CC1` [Compound I215, 4-[4-({4-[(4-ethylpiperazinyl)methyl]phenyl}amino)-2-quinolyl]benzamide], with over 5 µM. Turning to `NC(=O)c1ccc(-c2cc(Nc3ccc(CCN4CCNCC4)cc3)c3ccccc3n2)cc1` [Compound I216, 4-(4-{[4-(2-piperazinylethyl)phenyl]amino}-2-quinolyl)benzamide], the IC50 is over 5 µM. Same read-out and setting: then `CN(C)CCc1ccc(Nc2cc(-c3ccc(C(N)=O)cc3)nc3ccccc23)cc1` [Compound I217, 4-[4-({4-[2-(dimethylamino)ethyl]phenyl}amino)-2-quinolyl]benzamide], with over 5 µM. Regarding `CCN(CC)CCCNc1cc(-c2ccc(C(N)=O)cc2)nc2ccccc12` [Compound I218, 4-(4-{[3-(diethylamino)propyl]amino}-2-quinolyl)benzamide], the half-inhibitory concentration (IC50) is over 5 µM. Same read-out and setting: then `NC(=O)c1ccc(-c2cc(NCCCN3CCCCCC3)c3ccccc3n2)cc1` [Compound I219, 4-{4-[(3-azaperhydroepinylpropyl)amino]-2-quinolyl}benzamide], with over 5 µM; and `NC(=O)c1ccc(-c2cc(Nc3ccc(CC4CCNCC4)cc3)c3ccccc3n2)cc1` [Compound I220, 4-(4-{[4-(4-piperidylmethyl)phenyl]amino}-2-quinolyl)benzamide], with over 5 µM; and `O=C1Cc2ccc(-c3cc(NCCCN4CCCCC4)c4ccccc4n3)cc2N1` [Compound I221], with 0.801 to 5 µM. Same read-out and setting: for `NC(=O)c1ccc(-c2cc(N3CCC(Cc4ccc(N)cc4)CC3)c3ccccc3n2)cc1` [Compound I222, 4-(4-{4-[(4-aminophenyl)methyl]piperidyl}-2-quinolyl)benzamide] the value was over 5 µM.

With `Fc1cccc(-c2cc(NCCCN3CCCCC3)c3ccccc3n2)c1C(F)(F)F` [Compound I223], the IC50 is 0.801 to 5 µM. As for `c1ccc2c(NCCCN3CCCCC3)cc(-c3ccc4scnc4c3)nc2c1` [Compound I224], the half-inhibitory concentration (IC50) was in the range of 0.801 to 5 µM. Still for that read-out and setting: then `Fc1ccc(-c2ccc(-c3cc(NCCCN4CCCCC4)c4ccccc4n3)cc2)cc1` [Compound I225], with 0.801 to 5 µM; and `CC(C)CNC(=O)c1ccc(-c2cc(NCCCN3CCCCC3)c3ccccc3n2)cc1` [Compound I226], with 0.801 to 5 µM. Take `O=C(NCCO)c1ccc(-c2cc(NCCCN3CCCCC3)c3ccccc3n2)cc1` [Compound I227]: the half-inhibitory concentration (IC50) lay in the range of 0.801 to 5 µM. With `CCNC(=O)c1ccc(-c2cc(NCCCN3CCCCC3)c3ccccc3n2)cc1F` [Compound I229], the IC50 was 0.801 to 5 µM. Same read-out and setting: then `O=C(NC1CCCCC1)c1ccc(-c2cc(NCCCN3CCCCC3)c3ccccc3n2)cc1` [Compound I230], with 0.801 to 5 µM; and `CC(=O)Nc1ccc(-c2cc(NCCCN3CCCCC3)c3ccccc3n2)cc1F` [Compound I232], with 0.801 to 5 µM; and `O=S(=O)(c1ccccc1-c1cc(NCCCN2CCCCC2)c2ccccc2n1)N1CCOCC1` [Compound I233], with over 5 µM. Same read-out and setting: for `O=C(c1ccc(-c2cc(NCCCN3CCCCC3)c3ccccc3n2)cc1)N1CCOCC1` [Compound I234] the value was 0.2 to 0.8 µM; for `O=S(=O)(c1ccc(-c2cc(NCCCN3CCCCC3)c3ccccc3n2)cc1)N1CCSCC1` [Compound I235, 4-[(4-{4-[(3-piperidylpropyl)amino]-2-quinolyl}phenyl)sulfonyl]-1,4-thiazaperhydroine], 0.2 to 0.8 µM; for `O=S(=O)(c1ccc(-c2cc(NCCCN3CCCCC3)c3ccccc3n2)cc1)N1CCOCC1` [Compound I236], 0.2 to 0.8 µM. Still for that read-out and setting: for `CCN1CCC(Cc2cccc(Nc3cc(-c4cccc(NC(C)=O)c4)nc4ccccc34)c2)CC1` [Compound I237, N-{3-[4-({3-[(1-ethyl-4-piperidyl)methyl]phenyl}amino)-2-quinolyl]phenyl}acetamide] the value was 0.801 to 5 µM.

As for `Fc1c(Cl)cccc1-c1cc(NCCCN2CCCCC2)c2ccccc2n1` [Compound I238], the IC50 lay in the range of 0.801 to 5 µM. Regarding `CCN(CC)S(=O)(=O)c1ccccc1-c1cc(NCCCN2CCCCC2)c2ccccc2n1` [Compound I240], the IC50 was over 5 µM. Still for that read-out and setting: then `C1=C(c2cc(NCCCN3CCCCC3)c3ccccc3n2)OCC1` [Compound I241], with over 5 µM; and `CCN(CC)S(=O)(=O)c1ccc(C)c(-c2cc(NCCCN3CCCCC3)c3ccccc3n2)c1` [Compound I242], with over 5 µM; and `c1ccc(-c2ccc(-c3cc(NCCCN4CCCCC4)c4ccccc4n3)cc2)cc1` [Compound I243], with 0.801 to 5 µM. Consider `CCN(CC)S(=O)(=O)c1cccc(-c2cc(NCCCN3CCCCC3)c3ccccc3n2)c1` [Compound I244], for which the concentration for half-maximal inhibition (IC50) was over 5 µM. For the compound `c1ccc(CSc2cccc(-c3cc(NCCCN4CCCCC4)c4ccccc4n3)c2)cc1` [Compound I245], the 50% inhibitory concentration (IC50) was over 5 µM. For the compound `CCN(CC)S(=O)(=O)c1ccc(-c2cc(NCCCN3CCCCC3)c3ccccc3n2)cc1` [Compound I246], the IC50 was in the range of 0.801 to 5 µM. On to `c1ccc2c(NCCCN3CCCCC3)cc(-c3ccc4sccc4c3)nc2c1` [Compound I247], for which the half-maximal inhibitory concentration (IC50) is 0.2 to 0.8 µM. On the same count and under the same terms, for `Cc1nc2ccc(-c3cc(NCCCN4CCCCC4)c4ccccc4n3)cc2s1` [Compound I248] the value was 0.801 to 5 µM. For `O=C(NC1CCCC1)c1ccc(-c2cc(NCCCN3CCCCC3)c3ccccc3n2)cc1` [Compound I249], the IC50 is 0.2 to 0.8 µM. On the same count and under the same terms, then `CC(=O)Nc1cc(C(=O)O)cc(-c2cc(NCCCN3CCCCC3)c3ccccc3n2)c1` [Compound I250], with 0.801 to 5 µM; and `CNC(=O)c1ccc(-c2cc(NCCCN3CCCCC3)c3ccccc3n2)cc1Cl` [Compound I251], with 0.2 to 0.8 µM. For the compound `NC(=O)c1ccc(-c2cc(NCCCN3CCCCC3)c3ccccc3n2)c(F)c1` [Compound I252], the 50% inhibitory concentration (IC50) is 0.2 to 0.8 µM. On the same count and under the same terms, then `O=C(NCc1ccccc1)c1ccc(-c2cc(NCCCN3CCCCC3)c3ccccc3n2)cc1` [Compound I253], with 0.2 to 0.8 µM; and `CC(=O)NCc1ccc(-c2cc(NCCCN3CCCCC3)c3ccccc3n2)cc1` [Compound I255], with 0.2 to 0.8 µM. The same measure, in the same setting: for `c1cc2c3c(cc(-c4cc(NCCCN5CCCCC5)c5ccccc5n4)cc3c1)CC2` [Compound I256] the value was 0.2 to 0.8 µM; for `O=S(=O)(c1ccccc1)n1ccc2cc(-c3cc(NCCCN4CCCCC4)c4ccccc4n3)ccc21` [Compound I260], 0.801 to 5 µM; for `N#CCCNC(=O)c1ccc(-c2cc(NCCCN3CCCCC3)c3ccccc3n2)cc1` [Compound I265], 0.2 to 0.8 µM. Regarding `CCN(C)C(=O)c1ccc(-c2cc(NCCCN3CCCCC3)c3ccccc3n2)cc1` [Compound I266], the IC50 lay in the range of 0.801 to 5 µM. The same measure, in the same setting: for `O=C(NC1CC1)c1ccc(-c2cc(NCCCN3CCCCC3)c3ccccc3n2)cc1` [Compound I271] the value was 0.801 to 5 µM; for “(2-fluoro-4-{4-[(3-piperidylpropyl)amino](2-quinolyl)}phenyl)-N-methylcarboxamide [Compound I228]”, 0.801 to 5 µM. The same measure, in the same setting: for “(2-morpholin-4-ylethyl)(2-phenyl(4-quinolyl))amine [Compound I180]” the value was 0.801 to 5 µM.

Still in this test, the particulars now being: SAR discussion.
For `CSCCCN1CCCCC1` [Entry 64], the “LMPTP (OMFP) potency in words” value is “inactive”.

Staying with this test, now noted: Table 1 quinazolinone series; CP sample (cherry pick of DMSO solution from NIH MLSMR); read-out: LMPTP (OMFP) (IC50).
Consider `Cc1cccc(-c2nc(NCCCN3CCOCC3)c3ccccc3n2)c1` [Entry 1], for which the IC50 turned out to be 7.12 µM.

The test is the same for the next values; noted with them: Table 1 quinazolinone series; P sample (purchased from commercial sources); read-out: LMPTP (OMFP) (IC50).
Turning to `Cc1cccc(-c2nc(NCCCN3CCOCC3)c3ccccc3n2)c1` [Entry 1], the half-maximal inhibitory concentration (IC50) was found to be 13.5 µM.

The same test, now with this note: initial screening hits (Scheme 4); read-out: IC50.
In the case of `Cc1cccc(-c2nc(NCCCN3CCOCC3)c3ccccc3n2)c1` [Entry 1], the IC50 was determined as 7.12 µM.

Still in this test, the particulars now being: read-out: LMPTP (OMFP) IC50.
With `Cc1cccc(-c2nc(NCCCN3CCOCC3)c3ccccc3n2)c1` [Entry 1], the IC50 stood at 13.5 µM.
